In ChEMBL document CHEMBL2331376, “Ridaifen B, a tamoxifen derivative, directly binds to Grb10 interacting GYF protein 2” (Bioorg Med Chem, 2013) one finds Activity and Kd data, which are given here for two molecules.

The target in assay [1] is T1, GRB10-interacting GYF protein 2 (Homo sapiens) (UniProt Q6Y7W6).
T1 sequence (whole entry): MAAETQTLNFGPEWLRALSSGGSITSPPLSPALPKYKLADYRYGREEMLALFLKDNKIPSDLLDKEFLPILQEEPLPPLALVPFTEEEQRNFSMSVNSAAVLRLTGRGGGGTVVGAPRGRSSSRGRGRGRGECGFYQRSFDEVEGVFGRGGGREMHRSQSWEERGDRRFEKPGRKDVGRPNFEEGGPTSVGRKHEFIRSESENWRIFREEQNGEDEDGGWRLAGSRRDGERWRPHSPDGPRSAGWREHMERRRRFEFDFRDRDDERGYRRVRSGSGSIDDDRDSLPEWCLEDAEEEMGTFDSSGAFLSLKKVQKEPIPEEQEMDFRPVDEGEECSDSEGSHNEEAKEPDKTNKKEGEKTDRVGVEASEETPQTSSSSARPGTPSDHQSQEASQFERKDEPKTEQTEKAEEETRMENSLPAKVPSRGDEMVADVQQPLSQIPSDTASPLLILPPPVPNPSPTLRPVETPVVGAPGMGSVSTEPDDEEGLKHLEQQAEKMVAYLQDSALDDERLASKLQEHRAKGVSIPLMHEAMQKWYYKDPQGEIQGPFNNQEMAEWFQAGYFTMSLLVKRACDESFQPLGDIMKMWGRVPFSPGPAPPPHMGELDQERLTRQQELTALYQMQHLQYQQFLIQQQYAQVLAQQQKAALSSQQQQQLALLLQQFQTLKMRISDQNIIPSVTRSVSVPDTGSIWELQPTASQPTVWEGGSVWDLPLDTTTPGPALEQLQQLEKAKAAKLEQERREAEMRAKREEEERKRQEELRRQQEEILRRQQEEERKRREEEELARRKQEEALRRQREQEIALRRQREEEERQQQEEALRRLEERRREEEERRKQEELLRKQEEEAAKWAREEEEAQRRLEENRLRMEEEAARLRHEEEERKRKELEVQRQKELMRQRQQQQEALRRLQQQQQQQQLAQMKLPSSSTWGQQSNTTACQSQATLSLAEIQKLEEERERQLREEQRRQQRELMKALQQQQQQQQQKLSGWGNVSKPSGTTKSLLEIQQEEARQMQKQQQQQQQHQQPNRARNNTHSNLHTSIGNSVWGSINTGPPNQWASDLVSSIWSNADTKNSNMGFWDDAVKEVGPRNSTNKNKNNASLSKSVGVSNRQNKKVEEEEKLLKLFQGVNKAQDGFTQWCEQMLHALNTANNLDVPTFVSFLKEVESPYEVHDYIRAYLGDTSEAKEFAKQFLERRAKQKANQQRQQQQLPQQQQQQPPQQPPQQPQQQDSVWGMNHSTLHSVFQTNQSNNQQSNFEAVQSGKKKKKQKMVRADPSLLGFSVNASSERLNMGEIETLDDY
The assay can be described thus: Binding affinity to Flag-tagged Grb10 interacting GYF protein 2 (unknown origin) expressed in HEK293T cells by Western blotting method based pull-down assay. In kind it is cell-based. To be noted: HEK-293T.

The target of assay [2] is T2, GRB10-interacting GYF protein 2 (Homo sapiens, UniProt Q6Y7W6).
T2 sequence (Q6Y7W6 whole entry): T1 sequence (whole entry)
In words: (§1) Binding affinity to recombinant His-tagged Grb10 interacting GYF protein 2 (745-1030 amino acids) (unknown origin) by surface plasmon resonance analysis.

The target in assay [3] is T1, GRB10-interacting GYF protein 2 (Homo sapiens). The assay is described as §1.
Assay [4] has the same target. In words: Binding affinity to Grb10 interacting GYF protein 2 in human Jurkat cells using 10 uM compound immobilized on streptavidin-coated wells by T7 phase display screening method. In kind it is cell-based.

The structures appear in SMILES notation. pKd: −log10 of the molar value. Activity calls are given as the source filed them. The rule behind the calls is not given here.

Turning to `CCC(=C(c1ccc(OCCN2CCCC2)cc1)c1ccc(OCCN2CCCC2)cc1)c1cccc(OC(=O)CCCCCNC(=O)CCCC[C@@H]2SC[C@@H]3NC(=O)N[C@@H]32)c1`, the result in assay [1] and in assay [4] was Active. Moreover, the negative logarithm of the Kd (pKd) in assay [2] is 6.73. The Activity entry in assay [3] is “Dose-dependent effect”.

Regarding `CCC(=C(c1ccc(OCCN2CCOCC2)cc1)c1ccc(OCCN2CCOCC2)cc1)c1cccc(OC(=O)CCCCCNC(=O)CCCC[C@@H]2SC[C@@H]3NC(=O)N[C@@H]32)c1`, the outcome in assay [1], in assay [3] and in assay [4] was inactive.
